Legend:
[1] = tested on: neural progenitor cells (NPCs); assay: Neuronal differentiation (βIII tubulin) of NPCs exposed to medium of LPS-activated microglia; assay type: cell-based, mice; details: alone, 1 and 5 μM; NPCs with medium of LPS-activated microglia, 6 days
Protocol: Cultures of stem cells/neural progenitor cells (NPCs) obtained from the subventricular zone of adult mice were used. The NPCs were cultured under conditions of differentiation by mechanical dissociation of the neurospheres and seeding of the individual cells on plates coated with poly-ornithine and laminin in a culture medium only containing factor bFGF, according to state-of-the-art techniques.
The NPC cultures thus obtained were divided into aliquots, each of which was treated differently, as follows:
b) treatment a) and PS and curcumin administered separately at different concentrations;
c) treatment a) and PS/curcumin combined at different relative concentrations.
The control was represented by untreated NPC cells.
Neuronal differentiation was evaluated after 6 days, by immunocytochemical analysis with antibodies directed against the specific marker βIII tubulin, extrapolating the % concentration of protein present in the medium.

[2] = tested on: murine microglia BV-2 cells; assay: NO release by LPS-activated BV-2 microglia (Griess test); assay type: cell-based; details: 0.1 μg/ml LPS overnight; for effect on release of NO into the culture medium (FIG. 1): PS 10 and 30 μM, curcumin 2.5 and 5 μM
Protocol: PS (sodium salt), produced and purified according to EP1890706 (example 3), was resuspended in 2:1 chloroform/methanol, dried by evaporation and resuspended in PBS at the final concentration of 100 μM. 95% pure curcumin, prepared in DMSO at the final active ingredient concentration of 20 mM, was used for this experiment.
An in vitro glial activation model using the murine microglia BV-2 cell line was selected for this experiment:
50,000 cells/well were initially seeded in 96-well plates and cultured in DMEM containing 10% FCS, glutamine and antibiotics at 37° C. If activated with LPS (lipopolysaccharide, an endotoxin of Gram-negative bacterial, normally used as pro-inflammatory stimulus both in vitro and in vivo), these cells release NO into the culture medium; the experiment therefore involved stimulating them with 0.1 μg/ml LPS overnight in the presence or absence of PS (10 and 30 μM) or curcumin (2.5 and 5 μM) at different concentrations.
Finally, to evaluate the synergy between the two active constituents, the PS/curcumin combination was tested in the presence of LPS 0.1 μg/ml (as described above):
10 μM PS+2.5 μM curcumin, and
The final NO content in the medium was measured with the Griess test: briefly, aliquots of medium were mixed with equal volumes of Griess reagent (0.1% N(1-naphthyl)ethylenediamine dihydrochloride, 1% sulphanylamide and 0.4M HCl). After 15 minutes' reaction, the absorbance was measured at 570 nm.

microglia BV-2 cells = assay: IL-1β release from LPS-stimulated BV-2 cells (ELISA); assay type: cell-based, murine; details: administered individually, 0.1 μg/ml LPS 16 hours; for inhibition of IL-1β release (FIG. 4): 1 μM or 5 μM; for inhibition of IL-1β release at the higher concentration (FIG. 4): 5 μM
Protocol: The experiment was conducted in two steps, and was designed to evaluate the effect on in vitro release of IL-1β from microglia BV-2 cells stimulated with LPS after administration of PS and curcumin. IL-1β is a cytokine strongly involved in the inflammatory processes underlying both osteoarticular disorders and neurodegeneration.
Murine microglial BV-2 cells were stimulated as described in Example 3 (0.1 μg/ml LPS for 16 hours) and then treated with PS and curcumin at the concentration of 1 μM or 5 μM. The IL-1β levels were determined by ELISA assay. The control (CTRL) was represented by cells stimulated with LPS but not treated.
At the second stage of the experiment the effects of the combination of the two substances were evaluated on the same parameter according to the same protocol.

Compound | percentage of cells positive to βIII tubulin (FIG. 6) [1] | inhibition at 5 µM ([2]; Mus musculus, single treatment of 5 μM curcumin, read-out: inhibition of NO release into the culture medium) [%] | effect on release of NO into the culture medium (FIG. 1) [2] | inhibition of IL-1β release (FIG. 4) (microglia BV-2 cells) | inhibition of IL-1β release at the higher concentration (FIG. 4) (microglia BV-2 cells) | inhibition of NO release into the culture medium ([2]; single treatment of 10 μM PS) [%]
COc1cc(C=CC(=O)CC(=O)C=Cc2ccc(O)c(OC)c2)ccc1O [curcumin, 1,7-bis[4-hydroxy-3-methoxyphenyl]-1,6-heptadiene-3,5-dione] | did not differ significantly from that observed in the presence of LPS alone | < 20 | inhibit the release of NO into the medium in a dose-dependent manner | neither PS nor curcumin, administered individually, significantly inhibits the release of IL-1β | limited effect | –
phosphatidylserine [PS] | did not differ significantly from that observed in the presence of LPS alone | – | inhibit the release of NO into the medium in a dose-dependent manner | neither PS nor curcumin, administered individually, significantly inhibits the release of IL-1β | limited effect | ≤ 10

Reference: US9381204B2, “Pharmaceutical compositions containing phosphatidylserine and curcumin” (FIDIA FARMACEUTICI S.P.A., priority 2012, dated 2016)
